Test results published in publication PMC9731865, “Gambogic acid and juglone inhibit RNase P through distinct mechanisms” (The Journal of Biological Chemistry, 2022).
Where two headings read alike, the source gives them in different places.

Key:
T. maritima RNase P = T. maritima RNase P inhibition (literature); assay type: biochemical; settings: own PRORP IC50 against the cited T. maritima IC50 of 12.8 μM (ref 28)
PRORP1 wildtype = target: T1, PRORP1 wildtype (Arabidopsis thaliana, UniProt Q66GI4); assay: Time-dependent inactivation of PRORP1 by juglone (varying preincubation time); assay type: biochemical, A. thaliana; settings: for kinact/KI: wildtype PRORP1, 0.3 nM PRORP1, 250 nM pre-tRNA, 22 °C
T1 construct: made in house
T1 sequence (Q66GI4 77-572): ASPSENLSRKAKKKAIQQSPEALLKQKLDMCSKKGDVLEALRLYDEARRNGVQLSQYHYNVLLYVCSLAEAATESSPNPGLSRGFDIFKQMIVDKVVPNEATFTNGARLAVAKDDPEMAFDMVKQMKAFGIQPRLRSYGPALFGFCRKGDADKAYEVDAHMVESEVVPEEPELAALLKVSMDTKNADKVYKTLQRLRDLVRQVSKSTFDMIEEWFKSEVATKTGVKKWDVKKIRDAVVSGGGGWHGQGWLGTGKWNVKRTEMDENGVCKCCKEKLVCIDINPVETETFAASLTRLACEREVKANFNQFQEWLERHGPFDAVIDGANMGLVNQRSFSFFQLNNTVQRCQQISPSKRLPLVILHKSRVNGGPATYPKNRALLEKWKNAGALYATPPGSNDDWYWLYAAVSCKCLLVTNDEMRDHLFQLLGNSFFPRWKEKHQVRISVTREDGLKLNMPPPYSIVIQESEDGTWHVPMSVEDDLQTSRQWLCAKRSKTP
Protocol: A global fit of the data (Equations 5 and 6) was used to calculate kinact/KI. […] The errors shown are the standard errors obtained from fitting Equation 5 to the data in A independently. Reactions were performed with 0.3 nM PRORP1, 250 nM pre-tRNA containing 40 nM Fl-pre-tRNA, at 22 °C, in 30 mM MOPS, pH 7.8, 1 mM TCEP, 5 mM MgCl2, 500 nM (12 μg/ml) yeast tRNA, 5 mM spermidine, 6.65 μg/ml BSA, and 0.01% NP-40. Data are fit to determine kinact/KI.
For the analysis of juglone, PRORP1 activity was measured with varying preincubation time and juglone concentration. Varying concentrations of juglone were preincubated with a 35 μl of PRORP1 from 2 min to 4 h in 30 mM MOPS pH 7.8, 5 mM MgCl2, 100 mM NaCl, 1 mM TCEP, 500 nM (12 μg/ml) yeast tRNA^mix, 5 mM spermidine, 6.65 μg/ml BSA, and 0.01% NP-40. The concentration of DMSO in each reaction was held constant at 1%. Reactions were initiated by addition of 5 μl of substrate for a final working concentration of 0.3 nM PRORP1 and 250 nM pre-tRNA, a substrate concentration well below the KM value. The dependence of the initial velocity on the preincubation time was fit to a single exponential decay equation (Equation 5) to determine kinact,app at each juglone concentration. The values for kinact,app for various juglone concentrations (represented by [I]) were fit with Equation 6 to determine kinact/KI, assuming a 2-step inactivation mechanism.(5) Activity(%)=Ae^−(kinact,app)t (6) kinact,app=kinact/KI(KI[I]/KI+[I])

PRORP1 C353A = target: T2, PRORP1 C353A (Arabidopsis thaliana, UniProt Q66GI4, C353A); assay: Time-dependent inactivation by juglone, PRORP1 C353A; assay type: biochemical, A. thaliana
T2 construct: made in house
T2 sequence (Q66GI4 77-572 C353A): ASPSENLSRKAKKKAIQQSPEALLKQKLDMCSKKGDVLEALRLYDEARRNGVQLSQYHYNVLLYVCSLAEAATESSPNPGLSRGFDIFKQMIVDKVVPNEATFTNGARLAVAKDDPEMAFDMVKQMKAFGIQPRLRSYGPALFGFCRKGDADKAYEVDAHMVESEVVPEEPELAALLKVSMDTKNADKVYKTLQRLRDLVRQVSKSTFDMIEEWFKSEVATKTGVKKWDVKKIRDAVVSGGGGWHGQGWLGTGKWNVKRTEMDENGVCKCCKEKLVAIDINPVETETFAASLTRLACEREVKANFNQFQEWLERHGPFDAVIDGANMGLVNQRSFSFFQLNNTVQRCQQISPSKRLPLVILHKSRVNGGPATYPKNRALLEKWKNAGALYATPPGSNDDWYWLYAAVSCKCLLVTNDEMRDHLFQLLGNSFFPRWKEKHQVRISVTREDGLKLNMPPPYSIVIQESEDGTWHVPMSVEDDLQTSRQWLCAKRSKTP
Protocol: (§1) Given the multiple sites of cysteine modification, we wanted to identify the one(s) that potentially play a significant role in PRORP1 inactivation. Therefore, several cysteine-to-alanine point mutants were expressed, purified, and subjected to inhibition studies. We tested both single-site (C353A and C373A) and double-site (C353A/C373A and C222A/C353A) mutations. […] The value of kinact,app for each PRORP1 at varied concentrations of juglone was determined by fitting a single exponential equation (Equation 5) to the data (Fig. 10A). Unexpectedly, the values of kinact/KI (reflecting the inhibition of E + I to form EI∗) increased for a number of the PRORP1 variants: wildtype (0.001 ± 0.00004 μM^-1 min^-1), C353A (0.005 ± 0.002 μM^−1 min^−1), C373A (0.002 ± 0.0004 μM^-1 min^−1), C222A/C353A (0.003 ± 0.0001 μM^−1 min^−1), and C353A/C373A (0.0008 ± 0.0002 μM^-1 min^−1). These modest increases could be due to a decrease in the KI value or an increase in the value of kinact. […] Although, we cannot discount the possibility, however unlikely, that juglone may employ a mode of inhibition beyond cysteine residue modification that our crystal structures fail to capture.
(§2) Figure 10 Effects of PRORP1 cysteine mutations on juglone inactivation. […]
(§3) For the analysis of juglone, PRORP1 activity was measured with varying preincubation time and juglone concentration. […]

PRORP1 C222A/C353A = target: T3, PRORP1 C222A/C353A (Arabidopsis thaliana, UniProt Q66GI4, C222A/C353A); assay: Time-dependent inactivation by juglone, PRORP1 C222A/C353A; assay type: biochemical, A. thaliana
T3 construct: made in house
T3 sequence (Q66GI4 77-572 C222A/C353A): as the sequence (Q66GI4 77-572 C353A) above, with C146A counted along it
Protocol: as §1, §2, §3

PRORP1 C353A/C373A = target: T4, PRORP1 C353A/C373A (Arabidopsis thaliana, UniProt Q66GI4, C353A/C373A); assay: Time-dependent inactivation by juglone, PRORP1 C353A/C373A; assay type: biochemical, A. thaliana
T4 construct: made in house
T4 sequence (Q66GI4 77-572 C353A/C373A): as the sequence (Q66GI4 77-572 C353A) above, with C297A counted along it
Protocol: as §1, §2, §3

## O=C1C=CC(=O)c2c(O)cccc21 [juglone, 5-hydroxy-1,4-naphthalenedione]
T. maritima RNase P
  times more potent against PRORP than T. maritima RNase P: about 10 times
PRORP1 wildtype
  Ki: 12.5 ± 2.7 µM
PRORP1 wildtype; 10 μM juglone (highest concentration)
  decrease in initial activity (extrapolated to 0 min preincubation): 50%
PRORP1 wildtype; Equation 1
  Hill coefficient n of the fit to 0-min preincubation data: 1
PRORP1 wildtype; inhibition depends on preincubation time
  mode of inhibition of PRORP1: time-dependent inhibitor
PRORP1 wildtype; read-out: kinact/KI, global fit using Equations 5 and 6 (converted)
  kinact/KI: 16.7 M⁻¹ s⁻¹
PRORP1 wildtype; read-out: kinact/KI, hyperbolic fit using Equation 6 (converted)
  kinact/KI: 16.7 M⁻¹ s⁻¹
PRORP1 C353A
  Ki: > 10 µM
  kinact/KI: 83.3 M⁻¹ s⁻¹
PRORP1 C222A/C353A
  kinact/KI: 50 M⁻¹ s⁻¹
PRORP1 C222A/C353A; double-cysteine mutation (C222A/C353A)
  inhibition at time 0: not observed
PRORP1 C353A/C373A
  kinact/KI: 13.3 M⁻¹ s⁻¹
PRORP1 C353A/C373A; double-cysteine mutation (C353A/C373A)
  inhibition at time 0: not observed
